We go through 6 compounds from publication PMC10222464, “Pharmacokinetic Study and Metabolite Identification of CAM106 in Rats by Validated UHPLC-MS/MS” (Pharmaceuticals, 2023).

“Also recorded” adds a separate entry of the source. Where two headings read alike, the source gives them in different places.

One data set can be described thus: Water solubility. Type of data set: physicochemical.
Data set [1] is described as follows: Metabolite identification in rat plasma, urine and feces by high-resolution mass spectrometry. To be noted: √ found, × not found.
A further data set deals with H3N2. On the set-up: method as in PMID 22625417. To be noted: read-out: IC50 for H3N2 virus; cited from earlier work.
Data set [2] relates to influenza virus B. The settings on record: cited from earlier work.
Data set [3] in a line: Pharmacokinetic study in rats after oral and intravenous administration (UHPLC-MS/MS, non-compartment analysis). Type of data set: in vivo, Sprague Dawley (SD) rats. To be noted: for MRT inf: read-out: MRT0–inf; for MRT last: read-out: MRT0–t. Here is the method: By using the UHPLC–MS/MS method, we successfully performed accurate quantification of CAM106 in rat plasma, and a non-compartment analysis was used to characterize the pharmacokinetic profiles of CAM106. […] After intravenous administration, T1/2 and Vd were 1.34 ± 0.64 h and 16624.89 ± 8171.11 mL/kg, respectively. […] The mean retention times after oral and intravenous administration were 3.42 ± 0.73 h and 0.63 ± 0.17 h, respectively.
All twelve male Sprague Dawley (SD) rats (weight 200 ± 20 g) were purchased from Xinjiang Medical University (Xinjiang, China). […] For the pharmacokinetic study, twelve rats were randomized into two groups (n = 6). The rats were fasted overnight before the experiment but had free access to water. […] For the oral administration group, CAM106 was intragastrically administered to the rats at a dose of 180 mg/kg. Approximately 0.2 mL of blood was drawn from the ophthalmic veins at 0, 0.25, 0.5, 0.75, 1, 1.5, 2, 4, and 10 h. For intravenous administration, CAM106 was injected into the tail at a dose of 18 mg/kg. About 0.2 mL of blood (from the ophthalmic veins) was drawn at 0, 0.25, 0.5, 0.75, 1, 1.5, 2, 4, and 6 h. After that, 1.5 mL polyethylene tubes containing EDTA were used to collect the plasma. The blood samples were centrifuged at 19,800× g for 7 min after which the supernatant was collected and stored at −80 °C for further analysis.
A 10 µL volume of methanol was added to 100 µL of each plasma sample and vortexed for 3 s (3000 rpm). Then, the mixtures were vortexed for three seconds while receiving 10 µL of internal standard (3000 rpm). A volume of 350 µL acetonitrile was added to 100 µL of each plasma sample. The mixtures were vortexed for 1 min and centrifuged for 7 min at 19800 g. A 100 µL aliquot of the supernatant was stored and 5 µL was subjected to UHPLC–MS/MS analysis.
For the pharmacokinetic study, the chromatographic separation was carried out on an Acquity UHPLC BEH C18 column (2.1 × 75 mm, 1.7 µm) with a filter. The column oven was set at 35 °C. The mobile phase aqueous solution (A, containing 0.1% formic acid) and acetonitrile (B) worked within 0–3.5 min with 60% B. The injection volume was set at 5 µL, with a flow rate of 0.2 mL/min. By using the parallel reaction monitoring (PRM) mode, the CAM106 and internal standard were found. The following adjustments were made to the electrospray ionization (ESI) source parameters: high collision dissociation cell (HCD) energy, 27 eV (for CAM106) and 42 eV (for the IS); capillary temperature, 320 °C; S-lens RF level, 55 V; automatic gain control (AGC) target, 1e^6; maximum IT, 100 ms; spray voltage, 3.2 kV.

Another data set relates to H1N1. Also on record: method as in PMID 22625417. To be noted: read-out: IC50 for H1N1 virus; cited from earlier work.
In data set [4] the test system is influenza virus B. In words: Anti-influenza activity (IC50) against influenza virus B. Type of data set: cell-based. To be noted: CAM106 versus rupestonic acid.
For another data set, the system named is Kun Ming mice. Also on record: method as in earlier work. To be noted: 25 mg/kg; cited from earlier work.
The next data set relates to rats. In words: Observation of toxicity / adverse reactions in rats after dosing. The format is in vivo, Sprague Dawley (SD) rats.
The nature of data set [5]: Stability of CAM106 QC samples (rat plasma, stock solution) under different conditions. The format is physicochemical. The settings on record: for Accuracy, autosampler stability 0 h / Accuracy, autosampler stability 4 h / Accuracy, autosampler stability 8 h / Accuracy, autosampler stability 12 h: autosampler 10 °C; for Accuracy, room temperature: room temperature 12 h; for Accuracy, stock solution 15 days: stock solution 15 days at −20 °C; for Accuracy, thaw: three freeze–thaw cycles; for Accuracy, long-term stability 1 day / Accuracy, long-term stability 7 days: −80 °C. The procedure:
Three quality control (QC) concentrations of CAM106 were used for stability testing under five conditions: in the autosampler for 0, 4, 8, and 12 h; long-term stability at −80 °C for 1 and 7 days; stock solution for 15 days at −20 °C; at room temperature for 12 h; and three freeze–thaw cycles.
The stability tests were conducted with rat plasma containing CAM106 through the analysis of 3 replicates at 10.64, 106.38, and 638.30 ng/mL. This typically comprises short-term stability (room temperature), long-term stability (−80 °C), post-preparation stability (autosampler, 10 °C), and freeze–thaw cycle stability (room temper and −80 °C).

The conditions of data set [6]: in vivo.
The mark [7] stands for this setting: IV 18.0 mg/kg, n = 6, mean ± SD.
Where [8] appears, read: PO 180.0 mg/kg, n = 6, mean ± SD.
Setting [9] is: male, Sprague Dawley, rat, plasma, IV 18.0 mg/kg, n = 6, mean ± SD.
[10] abbreviates: male, Sprague Dawley, rat, plasma, PO 180.0 mg/kg, n = 6, mean ± SD.

By IC50 is commonly meant the midpoint of a concentration-inhibition curve. The term half-life denotes the time needed for the level to fall by half in the phase considered. Low readings indicate rapid decline, high ones slow decline. Usually Cmax stands for the maximum level reached in the sampled fluid or tissue. As a reminder, the Tmax is the time from dosing to the highest level. The bioavailability is the share of a dose that reaches the circulation, judged against a reference dose that is usually intravenous. For `C=C(C(=O)NCc1cc(-c2ccc(F)cc2)no1)C1CCC(C)C2CC(=O)C(C)=C2C1` (stereo not drawn) [CAM106], in “Water solubility”, the Solubility in water entry is on record as “poorly soluble in water; also recorded: weak water solubility”. In [1] (rat feces 0–48 h after administration of CAM106), the “Detected in rat feces (F)” value was “√”. Also, in data set [1] (rat urine 0–48 h after administration of CAM106), the “Detected in rat urine (U)” value is recorded as “√”. Further, the IC50 in the data set with H3N2 is 1090 nM. The IC50 in the data set with influenza virus B [2] (read-out: IC50 for B virus) is 3250 nM. For the same compound, in [3] (setting [7]), the “AUC0–inf” value is listed as 1287.93 ± 549.25 h·(ng/mL) and the “AUC0–t” value is reported as 1255.32 ± 544.72 h·(ng/mL). Moreover, in data set [3] (setting [8]), the “AUC0–inf” value was 294.19 ± 221.69 h·(ng/mL), the “AUC0–t” value was 200.94 ± 87.45 h·(ng/mL) and the Vd is given as 4,605,807.05 ± 2,044,928.13 mL/kg. In data set [3] (setting [9]), the clearance was 277 mL/min/kg, the half-life was 1.34 ± 0.64 h, the MRT inf amounted to 0.79 ± 0.23 h and the MRT last is 0.63 ± 0.17 h. In addition, in data set [3] (male, Sprague Dawley, rat, plasma, IV 18.0 mg/kg, n = 6, mean ± SD, read-out: Vd), the Vd is 27.4 L/kg. In data set [3] (setting [10]), the Cmax was found to be 61 ± 30.8 ng/mL, the Tmax came out at 1.21 ± 0.51 h, the half-life was 4.56 ± 2.31 h and the MRT inf came out at 6.69 ± 3.57 h. Besides, in [3] (setting [10]), the MRT last amounted to 3.42 ± 0.73 h. The bioavailability in data set [3] (male, Sprague Dawley, rat, plasma, oral, 180 mg/kg, PO 180.0 mg/kg versus IV 18.0 mg/kg, read-out: F (%), absolute (oral) bioavailability) is roughly 1.6%. The same compound came in with a Cmax in [3] (male, Sprague-Dawley, rat, plasma, IV 18.0 mg/kg, n = 6, mean ± SD) of 2310 ± 1000 ng/mL. Also, the IC50 in the data set with H1N1 is 970 nM. Further, the “IC50 against influenza virus B relative to rupestonic acid” value with influenza virus B [4] is “about 35 fold”. Besides, the Toxic response entry in the data set with Kun Ming mice is reported as “no toxic response”. In addition, the Signs of toxicity result with rats (180 mg/kg oral and 18 mg/kg intravenous for 3 days) is listed as “no signs of toxicity were observed”. The “Adverse reactions or acute toxicity” value in the data set with rats (oral 180 mg/kg or intravenous 18 mg/kg) is given as “No adverse reactions or acute toxicity were observed”. Also, in data set [5] (10.64 ng/mL), the “Accuracy, autosampler stability 0 h” value was determined as 95.02; the “Accuracy, autosampler stability 4 h” value came to 93.52; the “Accuracy, autosampler stability 8 h” value came to 91.35; the “Accuracy, autosampler stability 12 h” value was found to be 100.38. Also, in data set [5] (10.64 ng/mL), the “Accuracy, room temperature” value is 96.71; the “Accuracy, stock solution 15 days” value is reported as 91.26; the “Accuracy, thaw” value is listed as 97.21; the “Accuracy, long-term stability 1 day” value is on record as 97.93. For the same compound, the “Accuracy, long-term stability 7 days” value in data set [5] (10.64 ng/mL) came to 103.20. Further, in data set [5] (106.38 ng/mL), the “Accuracy, autosampler stability 0 h” value worked out at 106.05; the “Accuracy, autosampler stability 4 h” value turned out to be 101.96; the “Accuracy, autosampler stability 8 h” value is on record as 101.46; the “Accuracy, autosampler stability 12 h” value worked out at 98.88. For the same compound, in data set [5] (106.38 ng/mL), the “Accuracy, room temperature” value came out at 101.12; the “Accuracy, stock solution 15 days” value is reported as 108.39; the “Accuracy, thaw” value turned out to be 106.13; the “Accuracy, long-term stability 1 day” value amounted to 104.02. Besides, the “Accuracy, long-term stability 7 days” value in [5] (106.38 ng/mL) is recorded as 94.03. In [5] (638.30 ng/mL), the “Accuracy, autosampler stability 0 h” value is on record as 100.00; the “Accuracy, autosampler stability 4 h” value was 102.58; the “Accuracy, autosampler stability 8 h” value worked out at 97.09; the “Accuracy, autosampler stability 12 h” value is 96.48. For the same compound, in data set [5] (638.30 ng/mL), the “Accuracy, room temperature” value worked out at 102.21; the “Accuracy, stock solution 15 days” value is listed as 95.27; the “Accuracy, thaw” value amounted to 100.09; the “Accuracy, long-term stability 1 day” value is recorded as 103.73. Also, the “Accuracy, long-term stability 7 days” value in data set [5] (638.30 ng/mL) was determined as 90.36.

For `C=C(C(N)=O)C1CCC(C)C2CC(=O)C(C)=C2C1` (stereo not drawn) [M1], in [6], the “Detected in rat feces (F)” value is given as “√” and the “Detected in rat urine (U)” value is reported as “√”.

As for `C=C(C(=O)N(C)C)C1CCC(C)C2CC(=O)C(C)=C2C1` (stereo not drawn) [M4], in data set [6], the “Detected in rat feces (F)” value was “√” and the “Detected in rat urine (U)” value is reported as “×”.

For the compound `C=C(C(=O)NCc1cc(-c2ccc(F)cc2)no1)C1CC[C@H](C(=O)O)C2CC(=O)C(C)=C2C1` (stereo partly drawn) [M5], in data set [6], the “Detected in rat feces (F)” value is recorded as “×” and the “Detected in rat urine (U)” value is reported as “√”.

`C=C(C(=O)NCC1=CC(c2ccc(F)cc2)NO1)C1CCC(C)C2CC(=O)C(C)=C2C1` (stereo not drawn) [M8]: in data set [6], the “Detected in rat feces (F)” value is given as “√” and the “Detected in rat urine (U)” value is given as “×”.

On to `C=C(C(=O)O)[C@H]1CC[C@H](C)[C@@H]2CC(=O)C(C)=C2C1` [rupestonic acid, reference compound], for which the IC50 in the data set on influenza virus B [2] (read-out: IC50 for virus B) is 116000 nM.
